# Experimental data as given in patent US20070111990A1, “3-Aza-1-oxa-dibenzo[e,h]azulenes for the treatment of central nervous system diseases and disorders” (GLAXOSMITHKLINE ISTRAZIVACKI CENTAR ZAGREB D.O.O., priority 2003, published 2007).
# Assays:
# [1] = target: T1, 5-HT2A receptor (Homo sapiens, UniProt P28223); experiment: radioligand binding assay for 5-HT2A receptor ([3H]-ketanserin); details: competitive binding; for IC50: human cortex or recombinant 5-HT2A in CHO-K1, read-out: binding affinity to 5-HT2A serotonin receptor expressed as IC50 value; for Ki: human cortex or recombinant 5-HT2A in CHO-K1, read-out: binding affinity to 5-HT2A serotonin receptor, Ki value
# T1 construct: expressed in transfected cells; host or cells: CHO-K1 (alternatively human cortex tissue)
# Experimental: (§1) The effect of the compounds of the present invention on the neurochemical steady state was determined by in vitro investigations such as a radionuclide-marked radioligand binding assay for 5-HT2A (Bonhaus D. W. Br. J. Pharmacol. 1995, 115:622; Saucier C. J. Neurochem. 1997, 68:1998) and 5-HT2C receptors (Wolf W. A. J. Neurochem. 1997, 69:1449), in vitro binding assay for σ1 receptor (Thomson W. and Donn R. Arthritis Res. 2002, 4: 302-306) and by in vivo investigations in a tail suspension test (Vogel H. G. and Vogel W. H. Drug Discovery and Evaluation Pharmacological Assays, Springer 1997, 304), in amphethamine-induced hyperlocomotion in mice (Millan M. J. et al, 1998 J Pharmacol. Exp. Ther. 287: 167-186), in a forced swim test in mice (Porsolt R. D. et al. Arch. Int. Pharmacodyn. 1977, 229:327-336), in meta-chlorophenyl piperazine (m-CPP) test on rats (Drug Dev. Res. 1989, 18:119-144), and in apomorphine, tryptamine, norepinephrine (ATN) test in rats (Arch. Int. Pharmacodyn. 1977, 227:238-253).
# (§2) In Vitro Method for Determining Affinity for Binding to 5-HT2A and 5-HT2C Receptors
# (§3) A small concentration of a radioligand having a great affinity for binding to a receptor was incubated with a tissue sample enriched with a certain receptor (1-5 mg of tissue) in a buffered medium (0.2-5 mL). Recombinant human HT2A and HT2C receptors were expressed in CHO-K1 or COS-7 cells and were also used for competitive binding. During incubation the radioligand bound to the receptor. When a binding balance was achieved, the receptors to which the radioligand was bound were separated from those to which said ligand was not bound, and the radioactivity of the receptor/radioligand complex was measured. The interaction of the tested compounds with receptors was tested in competitive binding experiments. Various concentrations of tested compounds were added to the incubation mixture containing a prepared tissue enriched with corresponding receptors and the radioligand. The radioligand binding was inhibited by the test compounds proportionally to the affinity of a certain compound for the receptor and to the concentration of the compound.
# The radioligand used for the determination of binding to ^5-HT2A receptor was [^3H]-ketanserin and the tissue used was human cortex or recombinant 5-HT2A receptor expressed in CHO—K1.
# [2] = target: T2, 5-HT2C receptor (Homo sapiens, UniProt P28335); experiment: radioligand binding assay for 5-HT2C receptor ([3H]-mesulergine); details: competitive binding; for IC50: choroid plexus or recombinant 5-HT2C in CHO-K1, read-out: binding affinity to 5-HT2C serotonin receptor expressed as IC50 value; for Ki: choroid plexus or recombinant 5-HT2C in CHO-K1, read-out: binding affinity to 5-HT2C serotonin receptor, Ki value
# T2 construct: expressed in transfected cells; host or cells: CHO-K1 cells (alternatively choroid plexus tissue)
# T2 sequence (P28335 33-458): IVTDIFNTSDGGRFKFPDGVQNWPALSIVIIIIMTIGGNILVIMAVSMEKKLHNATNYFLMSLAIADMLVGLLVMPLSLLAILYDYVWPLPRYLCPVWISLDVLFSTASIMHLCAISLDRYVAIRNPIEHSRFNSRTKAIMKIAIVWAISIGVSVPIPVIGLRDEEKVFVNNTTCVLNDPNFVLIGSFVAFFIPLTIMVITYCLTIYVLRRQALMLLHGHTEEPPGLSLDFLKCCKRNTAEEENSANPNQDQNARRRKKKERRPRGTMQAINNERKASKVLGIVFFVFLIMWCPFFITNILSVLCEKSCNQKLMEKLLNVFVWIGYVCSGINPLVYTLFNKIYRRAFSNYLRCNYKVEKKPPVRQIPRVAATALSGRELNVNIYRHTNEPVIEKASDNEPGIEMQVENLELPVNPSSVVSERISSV
# Experimental: as §1, §2, §3
# The radioligand used for the determination of binding to 5-HT2C receptor was [^3H]-mesulergine and the tissue used was choroid plexus or recombinant 5-HT2C receptor expressed in CHO—K1 cells.
# T1 sequence (P28223 whole entry): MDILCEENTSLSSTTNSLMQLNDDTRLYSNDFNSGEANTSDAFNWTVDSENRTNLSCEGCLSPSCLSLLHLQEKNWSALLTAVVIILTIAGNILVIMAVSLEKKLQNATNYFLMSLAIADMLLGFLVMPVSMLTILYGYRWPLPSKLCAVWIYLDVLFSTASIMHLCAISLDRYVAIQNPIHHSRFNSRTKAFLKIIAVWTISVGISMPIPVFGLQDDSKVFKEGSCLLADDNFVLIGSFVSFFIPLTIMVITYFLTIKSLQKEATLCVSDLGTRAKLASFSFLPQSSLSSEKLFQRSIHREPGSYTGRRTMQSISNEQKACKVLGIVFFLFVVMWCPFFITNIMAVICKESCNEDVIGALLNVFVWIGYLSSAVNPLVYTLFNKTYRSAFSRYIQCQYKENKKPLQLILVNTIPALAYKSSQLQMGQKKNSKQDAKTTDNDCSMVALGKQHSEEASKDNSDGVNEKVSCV
SMILES,IC50 [1] [nM],Ki [1] [nM],IC50 [2] [nM],Ki [2] [nM]
"CN(C)CCOCc1nc2c(o1)-c1cc(Cl)ccc1Sc1ccccc1-2 [[2-(11-chloro-1-oxa-8-thia-3-aza-dibenzo[e,h]azulen-2-ylmethoxy)-ethyl]-dimethyl-amine]",< 200,< 100,< 200,< 100
"CN(C)CCOCc1nc2c(o1)-c1ccccc1Sc1ccc(Cl)cc1-2 [[2-(5-chloro-1-oxa-8-thia-3-aza-dibenzo[e,h]azulen-2-ylmethoxy)-ethyl]-dimethyl-amine]",< 200,< 100,< 200,< 100
"Cc1nc2c(o1)-c1ccccc1Oc1ccc(Cl)cc1-2 [5-chloro-2-methyl-1,8-dioxa-3-aza-dibenzo[e,h]azulene]",< 200,< 100,< 200,< 100
"c1ccc2c(c1)Sc1ccccc1-c1ocnc1-2 [1-oxa-8-thia-3-aza-dibenzo[e,h]azulene]",< 200,< 100,< 200,< 100
"CN(C)CCOCc1nc2c(o1)-c1ccccc1Sc1ccccc1-2 [dimethyl-[2-(1-oxa-8-thia-3-aza-dibenzo[e,h]azulen-2-ylmethoxy)-ethyl]-amine]",< 200,< 100,< 200,< 100
